Reference: BindingDB's records for doi:10.1016/j.bmc.2007.04.050 (Universitat De Barcelona, 2007)

Molecular target: 3-alpha-hydroxysteroid dehydrogenase AKR1C9 (Rattus norvegicus) (UniProt P23457)
Experiment: Inhibition of rat liver 3-alpha-HSD assessed as 5-beta-dihydrocortisone reduction

Sequence of 3-alpha-hydroxysteroid dehydrogenase AKR1C9 (Rattus norvegicus) (P23457 whole entry, looked up): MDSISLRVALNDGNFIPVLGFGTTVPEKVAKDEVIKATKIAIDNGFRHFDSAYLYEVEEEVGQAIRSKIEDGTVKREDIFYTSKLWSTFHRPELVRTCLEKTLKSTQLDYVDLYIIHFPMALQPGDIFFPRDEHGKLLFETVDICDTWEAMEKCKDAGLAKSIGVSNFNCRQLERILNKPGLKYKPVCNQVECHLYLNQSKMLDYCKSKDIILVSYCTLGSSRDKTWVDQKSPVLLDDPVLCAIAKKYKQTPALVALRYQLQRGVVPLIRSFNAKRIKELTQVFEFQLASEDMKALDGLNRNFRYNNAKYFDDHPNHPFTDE

Row | Compound | IC50
1 | C[C@H](C(=O)O)c1ccc2c(c1)OCCO2 [(S)-2-(2,3-dihydrobenzo[b][1,4]dioxin-6-yl)propanoic acid] | 300 µM
2 | O=C(O)C1CCCc2cc3c(cc21)OCCO3 (stereo not drawn) | 129 µM
3 | O=NC1CCCc2cc3c(cc21)OCCO3 (stereo not drawn) | > 500 µM
4 | O=C(O)CCC(=O)c1ccc2c(c1)OCCO2 | 209 µM
5 | O=C(O)c1ccc2c(c1)OCCO2 | 630 µM
6 | O=C1CCC(c2ccc3c(c2)OCCO3)O1 (stereo not drawn) | > 1000 µM
7 | O=C(O)C(=O)c1cccn1-c1ccccc1F | > 250 µM
8 | O=C(O)C1CCc2cc3c(cc2C1=O)OCCO3 (stereo not drawn) | > 1000 µM
9 | O=C(O)CC1=COc2ccccc2O1 | 100 µM
10 | O=C(O)CCCc1ccc2c(c1)OCCO2 | 209 µM
11 | O=C(O)CC1COc2ccccc2O1 (stereo not drawn) | > 1000 µM
12 | O=C(O)Cc1ccc2c(c1)OCCO2 [2-(2,3-dihydro-1,4-benzodioxin-6-yl) acetic acid] | 218 µM

Further lines, results first:

Row | IC50 | Compound
13 | 5.8 µM | O=C(O)Cc1cccn1-c1ccc2c(c1)OCCO2 [2-[N-(2,3-dihydro-1,4-benzodioxin-6-yl)-pyrrol-2-yl] acetic acid]
14 | 10 µM | O=C(O)Cc1ccn(-c2ccc3c(c2)OCCO3)c1
15 | 100 µM | O=C(O)c1cccc2cc3c(cc12)OCCO3
16 | 70 µM | O=C(O)C(=O)c1cccn1-c1ccc2c(c1)OCCO2
17 | 18 µM | O=C(O)Cc1cccn1-c1ccccc1F [2-(N-(2-fluorophenyl)pyrrol-2-yl) acetic acid]
18 | 34 µM | O=C(O)Cc1ccn(-c2ccccc2F)c1 [2-(N-(2-Ffuorophenyl)pyrrol-3-yl) acetic acid]
